In the supplement of paper PMC10307832:

Tests used:
Assay in all cases: relative viability (nuclei count vs DMSO), 5 days (fraction); higher = more cells survive
Calu-6 = tested on: Calu-6
How it was run: (§1)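 After 5 days of treatment, lung cancer cells in 1536-well plates were fixed and stained in a single step (final 0.05% Triton X-100, 1% formaldehyde, 1 ug/ml Hoechst) and their nuclei counted on 4× images. Treatment had been applied by pin tool the day after seeding as one drug alone or as a fixed anchor-drug dose with five library-drug doses (not always all listed) in √10 steps. Relative viability is the nuclei count of treated wells divided by that of vehicle wells, and values are medians of duplicate plates.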

NCI-H1755 = tested on: NCI-H1755
How it was run: as §1

IA-LM = tested on: IA-LM
How it was run: as §1

NCI-H1703 = tested on: NCI-H1703
How it was run: as §1

A549 = tested on: A549
How it was run: as §1

A-427 = tested on: A-427
How it was run: as §1

CAL-12T = tested on: CAL-12T
How it was run: as §1

EBC-1 = tested on: EBC-1
How it was run: as §1

LK-2 = tested on: LK-2
How it was run: as §1

NCI-H1651 = tested on: NCI-H1651
How it was run: as §1

NCI-H1299 = tested on: NCI-H1299
How it was run: as §1

Cc1csc(=NC2CCCCC2)n1/N=C/c1ccc(O)c(O)c1O [MIM1] + CS(=O)(=O)N1CCN(Cc2cc3nc(-c4cccc5[nH]ncc45)nc(N4CCOCC4)c3s2)CC1 [Pictilisib] (partner 1 µM)
relative viability (Calu-6; first compound 0.2 µM): 0.909
relative viability (Calu-6; first compound 0.6325 µM): 0.892
relative viability (Calu-6; first compound 2 µM): 0.942
relative viability (Calu-6; first compound 6.325 µM): 0.499
relative viability (Calu-6; first compound 20 µM): 0.196
relative viability (NCI-H1755; first compound 0.2 µM): 0.465
relative viability (NCI-H1755; first compound 0.6325 µM): 0.372
relative viability (NCI-H1755; first compound 2 µM): 0.42
relative viability (NCI-H1755; first compound 6.325 µM): 0.37
relative viability (NCI-H1755; first compound 20 µM): 0.179
relative viability (IA-LM; first compound 0.2 µM): 0.36
relative viability (IA-LM; first compound 0.6325 µM): 0.328
relative viability (IA-LM; first compound 2 µM): 0.261
relative viability (IA-LM; first compound 6.325 µM): 0.18
relative viability (IA-LM; first compound 20 µM): 0.0832
relative viability (NCI-H1703; first compound 0.2 µM): 0.219
relative viability (NCI-H1703; first compound 0.6325 µM): 0.304
relative viability (NCI-H1703; first compound 2 µM): 0.286
relative viability (NCI-H1703; first compound 6.325 µM): 0.177
relative viability (NCI-H1703; first compound 20 µM): 0.182
relative viability (A549; first compound 0.2 µM): 0.508
relative viability (A549; first compound 0.6325 µM): 0.565
relative viability (A549; first compound 2 µM): 0.636
relative viability (A549; first compound 6.325 µM): 0.15
relative viability (A549; first compound 20 µM): 0.0858
relative viability (A-427; first compound 0.2 µM): 0.659
relative viability (A-427; first compound 0.6325 µM): 0.469
relative viability (A-427; first compound 2 µM): 0.671
relative viability (A-427; first compound 6.325 µM): 0.743
relative viability (A-427; first compound 20 µM): 0.214
relative viability (CAL-12T; first compound 0.2 µM): 0.394
relative viability (CAL-12T; first compound 2 µM): 0.473
relative viability (CAL-12T; first compound 6.325 µM): 0.453
relative viability (CAL-12T; first compound 20 µM): 0.233
relative viability (EBC-1; first compound 0.2 µM): 0.352
relative viability (EBC-1; first compound 0.6325 µM): 0.384
relative viability (EBC-1; first compound 2 µM): 0.355
relative viability (EBC-1; first compound 6.325 µM): 0.253
relative viability (EBC-1; first compound 20 µM): 0.191
relative viability (LK-2; first compound 0.2 µM): 0.581
relative viability (LK-2; first compound 0.6325 µM): 0.534
relative viability (LK-2; first compound 6.325 µM): 0.561
relative viability (LK-2; first compound 20 µM): 0.269
relative viability (NCI-H1651; first compound 0.2 µM): 0.646
relative viability (NCI-H1651; first compound 0.6325 µM): 0.646
relative viability (NCI-H1651; first compound 2 µM): 0.75
relative viability (NCI-H1651; first compound 6.325 µM): 0.542
relative viability (NCI-H1651; first compound 20 µM): 0.298
relative viability (NCI-H1299; first compound 0.2 µM): 0.726
relative viability (NCI-H1299; first compound 0.6325 µM): 0.791
relative viability (NCI-H1299; first compound 2 µM): 0.765
relative viability (NCI-H1299; first compound 6.325 µM): 0.535
relative viability (NCI-H1299; first compound 20 µM): 0.354

CCNC(=O)c1noc(-c2cc(C(C)C)c(O)cc2O)c1-c1ccc(CN2CCOCC2)cc1 [Luminespib] + CS(=O)(=O)CCNCc1ccc(-c2ccc3ncnc(Nc4ccc(OCc5cccc(F)c5)c(Cl)c4)c3c2)o1 [Lapatinib] (partner 2 µM)
relative viability (Calu-6; first compound 0.002 µM): 1.11
relative viability (Calu-6; first compound 0.006325 µM): 0.962
relative viability (Calu-6; first compound 0.02 µM): 1.38
relative viability (Calu-6; first compound 0.06325 µM): 0.166
relative viability (Calu-6; first compound 0.2 µM): 0.119
relative viability (NCI-H1755; first compound 0.002 µM): 1.09
relative viability (NCI-H1755; first compound 0.006325 µM): 0.97
relative viability (NCI-H1755; first compound 0.02 µM): 1.07
relative viability (NCI-H1755; first compound 0.06325 µM): 0.502
relative viability (NCI-H1755; first compound 0.2 µM): 0.176
relative viability (IA-LM; first compound 0.002 µM): 0.929
relative viability (IA-LM; first compound 0.006325 µM): 0.935
relative viability (IA-LM; first compound 0.02 µM): 0.643
relative viability (IA-LM; first compound 0.06325 µM): 0.0552
relative viability (IA-LM; first compound 0.2 µM): 0.066
relative viability (NCI-H1703; first compound 0.002 µM): 1.14
relative viability (NCI-H1703; first compound 0.006325 µM): 1.07
relative viability (NCI-H1703; first compound 0.02 µM): 0.998
relative viability (NCI-H1703; first compound 0.06325 µM): 0.158
relative viability (NCI-H1703; first compound 0.2 µM): 0.16
relative viability (A549; first compound 0.002 µM): 0.983
relative viability (A549; first compound 0.006325 µM): 0.903
relative viability (A549; first compound 0.02 µM): 0.897
relative viability (A549; first compound 0.06325 µM): 0.627
relative viability (A549; first compound 0.2 µM): 0.0491
relative viability (A-427; first compound 0.002 µM): 1.08
relative viability (A-427; first compound 0.006325 µM): 1.02
relative viability (A-427; first compound 0.02 µM): 0.771
relative viability (A-427; first compound 0.06325 µM): 1.04
relative viability (A-427; first compound 0.2 µM): 0.975
relative viability (CAL-12T; first compound 0.002 µM): 0.596
relative viability (CAL-12T; first compound 0.006325 µM): 0.644
relative viability (CAL-12T; first compound 0.02 µM): 0.309
relative viability (CAL-12T; first compound 0.06325 µM): 0.183
relative viability (CAL-12T; first compound 0.2 µM): 0.158
relative viability (EBC-1; first compound 0.002 µM): 0.204
relative viability (EBC-1; first compound 0.006325 µM): 0.223
relative viability (EBC-1; first compound 0.02 µM): 0.233
relative viability (EBC-1; first compound 0.06325 µM): 0.187
relative viability (EBC-1; first compound 0.2 µM): 0.194
relative viability (LK-2; first compound 0.002 µM): 0.849
relative viability (LK-2; first compound 0.006325 µM): 0.941
relative viability (LK-2; first compound 0.02 µM): 0.545
relative viability (LK-2; first compound 0.06325 µM): 0.252
relative viability (LK-2; first compound 0.2 µM): 0.204
relative viability (NCI-H1651; first compound 0.002 µM): 0.902
relative viability (NCI-H1651; first compound 0.006325 µM): 0.803
relative viability (NCI-H1651; first compound 0.02 µM): 0.561
relative viability (NCI-H1651; first compound 0.06325 µM): 0.193
relative viability (NCI-H1651; first compound 0.2 µM): 0.161
relative viability (NCI-H1299; first compound 0.002 µM): 1.04
relative viability (NCI-H1299; first compound 0.006325 µM): 0.965
relative viability (NCI-H1299; first compound 0.02 µM): 0.989
relative viability (NCI-H1299; first compound 0.06325 µM): 0.892
relative viability (NCI-H1299; first compound 0.2 µM): 0.219
